Reference: paper PMC6452685, “Lysyl-tRNA synthetase as a drug target in malaria and cryptosporidiosis” (Proceedings of the National Academy of Sciences of the …, 2019)
Values after ≈ are worked out from the molar mass of the structure shown.

What was measured:
FaSSIF solubility = assay type: physicochemical; conditions: 37 °C, thermodynamic from solid; FaSSIF pH 6.5
Protocol: 4.1 Aque ous s olubilit y
Compounds were subject to serial dilution from 10 mM to 0.47 mM in DMSO. An al i quot was then mi xed wi th Mi l li Q water to obtai n a n aq ueous di l uti on pl ate wi th a fi na l concentrati on rang e of 250 - 13 µM, with a final DMSO concentration of 2. 5 % (v /v ). Triplicate al i quots were transferred to a fl at bottomed pol ystyrene pl ate whi ch was i mmedi ately read o n the NEPHELOstar (BMG Lab Techn ol ogi es). […]
Drug dissolution in biorelevant media which simulates the liquid environment within the upper […]
into the blood stream and is more a more accurate determination of oral d os e s ol ubi li t y t han si mple aqueous sol ubi l i ty performed at neutral pH and wi thout any associ ated bil e aci ds and fats. This method i s based on that of Fagerberg et al. (16) where the FaSSIF has pH 6.5 a nd c ontains 3 mM sodium taurocholate and 0.7 5 mM lectithin. FaSSIF blank only has pH 6.5 and is devoid of salts and […]
[…] The sampl e i s then centri fuged at 10,00 0 rpm for 3 mi n befo re th e supernatant i s subject to HPLC analysis at 254 nm UV detecti on wavel ength. Typi call y, 10 µ l supernatant injections are suffi ci ent to achi eve peak areas whi ch fal l wi thi n the 6 p oi nt standar d curv e of anal y te concentrati ons i njected onto the col umn, al thoug h thi s may be i ncreas ed up to 40 µl for more insoluble compounds where necessary. […]

C. parvum = experiment: Anti-Cryptosporidium in vivo efficacy in NOD SCID gamma mice; set-up: species or system mouse
Protocol: INF-γ–knockout mice ([28], [29]) were infected orally with Nluc-expressing transgenic C. parvum oocysts. Treatment started upon patency 4 d postinfection (p.i.), and mice were treated orally once a day for 7 d. Infection was monitored daily by luciferase measurements in pooled feces of the entire cage. Mice were followed for 3 wk after completion of drug treatment. […] NOD SCID gamma mice were infected with C. parvum oocysts ([26]). Treatment started 7 d p.i., and mice were treated orally once a day for 7 d. The study was run with four mice per cage; infection was monitored by quantitative PCR on day eight for individual mice, and data are shown as oocysts per milligram of feces. […]
Data analysis was performed using GraphPad Prism 7.0 (GraphPad S oftware), Excel 2016 (Microsoft ) and R free so ftware (https://www.r-project.org) for data pl otti ng and s tati s ti cal model li ng. […]
The Nl uc-C. parvum IFN-γ-knockout (IFN-γ KO) m ouse in vivo experiments were run in acco rdance with the publ i s hed method (22). Briefly, female C57BL/ 6 IFN-γ KO mi ce, aged 6–8 weeks were infected with 10,000 C. parvum UG A1 Nl uc (Vi naya k et al 2015, Natu re) tra ns g eni c oocys ts . Mi ce (n=5 per g rou p) w ere admi ni s t ered 20 mg /k g of comp o und 5 fo rmul ated i n 3% et hanol , 7% Tw een 8 0, 90 % saline or t he f ormul at i on (v ehi cl e) by o ral g av ag e. […]

P. falciparum = experiment: In vivo antimalarial efficacy in P. falciparum-infected SCID mice engrafted with human erythrocytes; conditions: SCID mouse, orally once a day for 4 d
Source text: The l ev el of each comp ound i n mouse bl ood was determi ned by UPLC -MS/MS as previously re port e d (18). Pharmacokinetic parameters were derived from the blood c oncent ration time curve usi ng PKsol uti ons software v 2.0 (Summi t Research Servi ces, USA).
The mi ce were i ntrav enous l y i nfected with 2×107 P. fa l ci p a rum Pf3D700 87/ N9-infected erythrocytes (day 0). On day 3 after infection, mice (n=2) were rand oml y al l ocated to treatments that were admi nis tered once a day for 4 cons ecuti v e day s by oral g av ag e at 10 ml/k g.
The compo und c onc entrati on v ers us ti me data were anal yzed by non-compartmental anal ysi s (NCA) usi ng Phoeni xR Ve rsi on 6.3 (Pha rsi ght Corporati on, M ountai n Vi ew, CA, USA).
Femal e i mmunodefi ci ent NOD-sc i d I L-2Rγnull mi ce (NSG) (Charl es Ri v er, France) of 25-28 g r b ody w ei g ht w ere hou s ed i n The A rt of D i s cov ery ani mal faci li t y at BIC

[1] = Hepatocyte stability, human; assay type: in vitro ADME
Protocol: SUPPLEMENTARY INFORMATION where V (ml/mg protein) is the incubation volume/mg protein added (0.5) and microsomal protein yield is taken as being 52.5 mg protein per g liver. Verapami l (0. 5 µ M ) w as us ed as a pos i t i v e cont rol to confirm ac ceptable assay performance. Ex peri ments were performed us i ng a s i ngl e ti me-cours e […]
4.5 He pat ocy t e s t abilit y
Cryopreserved hepatocytes were used to take non-CYP mediated Phase I and Phase II enzymes into […]
than those determined using li v e r mi crosomes or other subcellular liver fractions and could be mo re predi ct i v e of a met abol i c rat e det ermi ned in vivo.
Cryopreserved mouse (batch MC539) and huma n (batch HU E50H) hepatocytes were supplied by ThermoFi sher Sci enti fi c, Pai sl ey, UK and Xenotech, LLC, respectively. Cryopreserved hepatocytes were rapidly thawed in a pre-heat ed w at er bat h at 37 °C before ad di ng to 50 ml of pre-warmed CHRM medi a (ThermoFi sher Sci enti fi c, Paisley, UK) and mi xed gentl y. […] […] 5 mi l li on v i abl e cel l s /ml i n s uppl emented W ME. Onl y s us pens i ons whi ch ac hi ev ed >80% pos t-thaw viability were us ed i n ex peri ment s . […]
DMSO and 0.25 million cells/ml. […]

O=C(NCC1(O)CCC(F)(F)CC1)c1cc(=O)c2cc(F)ccc2o1 [Compound 5]
solubility at 5 h (FaSSIF solubility): 255 µM (≈ 90.6 µg/mL) | reduction in parasite levels compared with control (C. parvum; NOD SCID gamma mouse, 20 mg/kg orally once a day for 7 d, day 8): 100 fold | reduction of parasite burden (C. parvum; dosed orally for 7 d, NOD SCID gamma mouse model): two orders of magnitude | AUCED90, estimated daily exposure in blood reducing parasitemia by 90% at day 5 (P. falciparum): 11,000 ng⋅h⋅ml^−1⋅d^−1 | ED90, daily oral dose reducing parasitemia by 90% at day 5 (P. falciparum): 1.5 mg⋅kg^−1 | Hepatocyte stability CLint [1]: 0.5 (mouse), <0.5 (human) mL⋅min^−1⋅g^−1
